The results in this text go back to ChEMBL document CHEMBL1126271, “Benzazepinone calcium channel blockers. 5. Effects on antihypertensive activity associated with N1 and aromatic substituents” (J Med Chem, 1992).

Type in all cases: functional
The species entered for experiment [1] is Oryctolagus cuniculus. The experiment is described as follows: In vitro vasorelaxant activity in circumferential strips of potassium-depolarized rabbit aorta.
The species entered for experiment [2] is Rattus norvegicus. The experiment is described as follows: Extent of hydrolysis of C3 acetyl group of 0.4 mM of compound 30 min after exposure by rat liver homogenate.
The species entered for experiment [3] is Rattus norvegicus. Nature of the experiment: Extent of hydrolysis of C3 acetyl group of 0.4 mM of compound 5 min after exposure by rat liver homogenate.
In experiment [4] the test system is Rattus norvegicus. The experiment is described as follows: Antihypertensive activity 0-6 hr after 135 umol/kg p.o. in rats.
In experiment [5] the test system is Rattus norvegicus. The experiment is described as follows: Antihypertensive activity 12-18 hr after 135 umol/kg p.o. in rats.
Experiment [6] concerns Rattus norvegicus. The experiment is described as follows: Antihypertensive activity 6-12h after 135 umol/kg p.o. in rats.

The IC50 is the concentration needed to halve the response being measured. Take `COc1ccc([C@@H]2Sc3cc(OC)ccc3N(C[C@@H]3CCCN3)C(=O)[C@@H]2OC(C)=O)cc1`: the IC50 in experiment [1] is 120 nM. For the same compound, the Hydrolysis in experiment [2] came to 7%; in experiment [3], 3%. In addition, the “Decrease in blood pressure” value in experiment [4] turned out to be 42%; in experiment [5], 37%; in experiment [6], 39%.

Compound `COc1ccc([C@@H]2Sc3cc(OC)ccc3N(C[C@@H]3CCCN3)C(=O)[C@@H]2O)cc1` had an IC50 in experiment [1] of 370 nM. The “Decrease in blood pressure” value in experiment [4] is listed as 32%; in experiment [5], 23%; in experiment [6], 33%.

For the compound `COc1ccc(C2Cc3c(Cl)cccc3N(CCN(C)C)C(=O)C2OC(C)=O)cc1` (racemic), the “Decrease in blood pressure” value in experiment [4] was found to be 10%.

Take `COc1ccc(C2Cc3cc(C(F)(F)F)ccc3N(CCN(C)C)C(=O)C2OC(C)=O)cc1` (stereo unspecified): in experiment [1], the midpoint of inhibition, the IC50, lay at 1900 nM.

`COc1ccc([C@@H]2Cc3cc(C(F)(F)F)ccc3N(CCN(C)C)C(=O)[C@@H]2OC(C)=O)cc1`: the “Decrease in blood pressure” value in experiment [4] amounted to 19%.

Take `COc1ccc([C@@H]2Cc3c(Cl)cccc3N(C[C@@H]3CCCN3)C(=O)[C@@H]2O)cc1`: the IC50 in experiment [1] came to 130 nM. Moreover, the “Decrease in blood pressure” value is 19% in experiment [4], 13% in experiment [5] and 15% in experiment [6].

Turning to `COc1ccc([C@@H]2Sc3ccccc3N(C[C@@H]3CCCN3)C(=O)[C@@H]2OC(C)=O)cc1`, in experiment [1], half-maximal inhibition (IC50) was put at 340 nM. Moreover, the Hydrolysis in experiment [2] is 57%; in experiment [3], 32%. The “Decrease in blood pressure” value in experiment [4] came to 18%; in experiment [5] it was 10%; in experiment [6] it was 8%.

With `COc1ccc([C@@H]2Cc3c(cccc3C(F)(F)F)N(CCN(C)C)C(=O)[C@@H]2OC(C)=O)cc1`, the Hydrolysis was 2% in experiment [2] and 0% in experiment [3]. Moreover, the “Decrease in blood pressure” value in experiment [4], in experiment [5] and in experiment [6] was 29% in each case.

As for `COc1ccc([C@@H]2Cc3c(cccc3C(F)(F)F)N(C[C@@H]3CCCN3)C(=O)[C@@H]2OC(C)=O)cc1`, the Hydrolysis in experiment [2] and in experiment [3] was 0% each time. Further, the “Decrease in blood pressure” value in experiment [4] amounted to 44%; in experiment [5], 38%.

As for `COc1ccc([C@@H]2Cc3cc(OC)ccc3N(C[C@@H]3CCCN3)C(=O)[C@@H]2O)cc1`, the IC50 in experiment [1] was determined as 1120 nM. The “Decrease in blood pressure” value in experiment [4] came to 18%; in experiment [5] it was 18%; in experiment [6], 19%.

As to `COc1ccc([C@@H]2Cc3c(Cl)cccc3N(C[C@@H]3CCCN3)C(=O)[C@@H]2OC(C)=O)cc1`, half-maximal inhibition in experiment [1] (IC50) was put at 120 nM. In addition, the Hydrolysis in experiment [2] turned out to be 17%; in experiment [3], 7%. Also, the “Decrease in blood pressure” value worked out at 18% in experiment [4], 20% in experiment [5] and 17% in experiment [6].

The compound `COc1ccc([C@@H]2Cc3cc(OC)ccc3N(C[C@@H]3CCCN3)C(=O)[C@@H]2OC(C)=O)cc1` displayed an IC50 in experiment [1] of 230 nM. For the same compound, the Hydrolysis in experiment [2] and in experiment [3] was 3% in each case. Besides, the entries for the “Decrease in blood pressure” value in experiment [4], in experiment [5] and in experiment [6] were 39%, 31% and 33%, respectively.

In experiment [1], `COc1ccc([C@@H]2Sc3ccccc3N(C[C@@H]3CCCN3)C(=O)[C@@H]2O)cc1` gave an IC50 of 1320 nM. Moreover, the “Decrease in blood pressure” value in experiment [4] was found to be 10%; in experiment [5], 9%; in experiment [6] it was 10%.

For the compound `COc1ccc([C@@H]2Sc3ccccc3N(CCN(C)C)C(=O)[C@@H]2OC(C)=O)cc1` [DILTIAZEM], the Hydrolysis worked out at 100% in experiment [2] and 68% in experiment [3]. In addition, the “Decrease in blood pressure” value in experiment [4] is 20%; in experiment [5] it was 19%.

In the case of `COc1ccc([C@@H]2Cc3cc(Cl)ccc3N(CCN(C)C)C(=O)[C@@H]2OC(C)=O)cc1`, the “Decrease in blood pressure” value in experiment [4], in experiment [5] and in experiment [6] was 12% in each case.

The compound `COc1ccc([C@@H]2Cc3ccccc3N(CCN(C)C)C(=O)[C@@H]2OC(C)=O)cc1` returned an IC50 in experiment [1] of 2990 nM. For the same compound, the Hydrolysis in experiment [2] is 53%; in experiment [3] it was 18%. Moreover, the “Decrease in blood pressure” value in experiment [5] was found to be 13%.

Consider `COc1ccc(C2Sc3cc(OC)ccc3N(CCN(C)C)C(=O)C2OC(C)=O)cc1` (racemic), for which half-maximal inhibition in experiment [1] (IC50) was put at 130 nM. The “Decrease in blood pressure” value in experiment [4] is recorded as 34%; in experiment [5], 19%; in experiment [6], 21%.

For `COc1ccc([C@@H]2Cc3c(cccc3C(F)(F)F)N(C[C@@H]3CCCN3)C(=O)[C@@H]2O)cc1`, the IC50 in experiment [1] worked out at 100 nM. Further, the “Decrease in blood pressure” value was 32% in experiment [4], 21% in experiment [5] and 21% in experiment [6].
